# Assay results as given in patent US7223770B2, “Tocopherol-modified therapeutic drug compounds” (priority 2003, dated 2007).
# Counter-ions that a name gives are not always drawn. Like-named read-outs stand apart in the source and are kept apart here. Marks after values point to notes of the source that are not given here.
# What was measured:
# [1] = test system: OVCAR-3 (ovarian); settings: value reported by NCI; cited from earlier work
# [2] = test system: NCI-H460 (non-small cell lung); settings: NCI-H460 (NSCLC); value reported by NCI; cited from earlier work
# [3] = test system: HT-29 (colorectal); settings: HT29 (COLON); value reported by NCI; cited from earlier work
# [4] = test system: MCF-7 (breast); settings: value reported by NCI; cited from earlier work
# [5] = rats, intravenous; literature value; cited from earlier work
# [6] = test system: HCT-15 (colorectal); settings: HCT-15 (COLON); value reported by NCI; cited from earlier work
# [7] = test system: HCT-116 (colorectal); settings: HCT-116 (COLON); value reported by NCI; cited from earlier work
# [8] = Pharmacokinetics following intravenous administration in rats; format: in vivo, Sprague-Dawley rats; settings: for Clearance / MRT / t1/2 (elimination): Sprague-Dawley rats, bolus intravenous, emulsion, approximately 14 mg/kg, plasma; for Plasma elimination half-life, times longer than the commercially available analogs: rats, intravenous
# Method: Blood samples were collected for up to 120 hours post dose via the jugular vein. […] A noncompartmental analysis was carried out using WinNonlin (v 4.1).
# The term “elimination rate constant” refers to the fraction of drug eliminated per unit of time. With first-order elimination, the rate of elimination is directly proportional to the serum drug concentration. There is a linear relationship between rate of elimination and serum drug concentration. Although the amount of drug eliminated in a first-order process changes with concentration, the fraction of a drug eliminated remains constant.
# The term “clearance” refers to a measure of the body's ability to eliminate drug and is a hypothetical volume of distribution of drug which is cleared per unit time (i.e., mL/min) by any pathway of drug removal. […] The term “volume of distribution” refers to a calculated volume of body fluid that would be required to dissolve the total amount of drug at the same concentration as that found in the blood. It is a proportionality constant relating the amount of drug in the body to the measured concentration in biological fluid (blood, plasma, serum).
# [9] = test system: HT-29 (colorectal); test: In vitro cytotoxicity GI50, ALAMAR BLUE, 48 hours; format: cell-based, human; settings: HT29 (COLON), emulsion formulation diluted in cell media
# Method: (§1) The cells were in contact with varying concentrations of the test article for a period of 48 hours. At the end of 48 hours, staining with ALAMAR BLUE was performed to determine the number of viable cells and calculate the degree of cellular growth inhibition as compared to a control group.
# [10] = test system: NCI-H460 (non-small cell lung); test: In vitro cytotoxicity GI50, ALAMAR BLUE, 48 hours; format: cell-based, human; settings: NCI-H460 (NSCLC), emulsion formulation diluted in cell media
# Method: as §1
# [11] = test system: HCT-15 (colorectal); test: In vitro cytotoxicity GI50, ALAMAR BLUE, 48 hours; format: cell-based; settings: HCT-15 (COLON), emulsion formulation diluted in cell media
# Method: as §1
# [12] = test system: OVCAR-3 (ovarian); test: In vitro cytotoxicity GI50, ALAMAR BLUE, 48 hours; format: cell-based; settings: emulsion formulation diluted in cell media
# Method: as §1
# [13] = test system: HCT-116 (colorectal); test: In vitro cytotoxicity GI50, ALAMAR BLUE, 48 hours; format: cell-based; settings: HCT-116 (COLON), emulsion formulation diluted in cell media
# Method: as §1
# [14] = format: physicochemical; settings: for Solubility in TPGS / Solubility in Vitamin E USP/NF: 65 °C; for Solubility in Tween 80 NF: 65 → Room Temp.; for Solubility in Acetonitrile / Solubility in Captex 300 EP / Solubility in Chloroform / Solubility in DMSO / Solubility in Ethanol Denatured / Solubility in Glycerin USP/EP/BP/JP / Solubility in Methanol / Solubility in Methylene dichloride / Solubility in PEG-400 NF / Solubility in Propylene Glycol, USP / Solubility in Soybean Oil USP: Room Temp.
# Method: Compounds were dissolved in each solvent under constant stirring and temperature to saturation. The resulting solutions were centrifuged and the supernatant was analyzed by high performance liquid chromatography (HPLC).
# [15] = test system: HT-29 human tumor cells; test: HT-29 Human Tumor Xenograft anti-tumor activity; format: in vivo, Athymic mice; settings: for Number of animals with no measurable tumor on Day 55 / Tumor Growth Delay (T − C) / Tumors that had still not reached maximum pre-determined size / Tumor Growth Inhibition (% T/C): 15 mg/kg intravenous; for Tumor Growth Inhibition (% T/C): at Day 55; for Median tumor size / Mice with no measurable tumor: fifty-five days after dose initiation
# Method: HT-29 Human Tumor Xenograft. Athymic mice were subcutaneously implanted with 30–40 mg tumor fragments using 12-gauge trocar needles. A sufficient number of mice were implanted with fragments so tumors in narrow weight range (100–200 mg) were selected for the trial on staging day (SD). The animals selected with tumors in the proper size range were randomized into six groups of 10 animals and intravenously administered the following test compounds:
# The tumor measurements were performed using a caliper (millimeters); the tumor volume was calculated based on the formula: (Length×width^2)/2=Volume (mm^3).
# [16] = In vitro stability of the lactone form in presence of human serum albumin; format: in vitro ADME; settings: saline buffered solution 10 mM pH 7.4, 4% human serum albumin, 37° C.; tested as SN2300 / SN2310 emulsion; FIG. 12
# Description: High performance liquid chromatography with fluorescence detection was used to analyze the decrease in the concentration of the lactone form over time.
# [17] = test system: MCF-7 (breast); test: In vitro cytotoxicity GI50, ALAMAR BLUE, 48 hours; format: cell-based; settings: emulsion formulation diluted in cell media
# Method: as §1
smiles,measurement,setting,value
CC[C@@]1(O)C(=O)OCc2c1cc1n(c2=O)Cc2cc3ccccc3nc2-1 [Camptothecin],GI50,[1],0.16 µM
same,GI50,[2],0.016 µM
same,GI50,[3],0.126 µM
same,GI50,[4],0.013 µM
same,Clearance,[5],8.81 L/h/kg
same,t1/2 (elimination),[5],1.7 h
same,GI50,[6],0.16 µM
same,GI50,[7],0.04 µM
CCc1c2c(nc3ccc(OC(=O)CCC(=O)Oc4c(C)c(C)c5c(c4C)CC[C@@](C)(CCC[C@H](C)CCC[C@H](C)CCCC(C)C)O5)cc13)-c1cc3c(c(=O)n1C2)COC(=O)[C@]3(O)CC [SN2310],Clearance,[8],0.0067 L/h/kg
same,MRT,[8],5.15 h
same,t1/2 (elimination),[8],3.49 h
same,"Plasma elimination half-life, times longer than the commercially available analogs",[8],~3 times
same,GI50,[9],0.091 µM
same,GI50,[10],0.004 µM
same,GI50,[11],0.099 µM
same,GI50,[12],0.083 µM
same,GI50,[13],0.119 µM
same,Solubility in TPGS,[14],27.6 mg/g
same,Solubility in Vitamin E USP/NF,[14],398.2 mg/g
same,Solubility in Tween 80 NF,[14],2.7 mg/g
same,Solubility in Acetonitrile,[14],3.1 mg/g
same,Solubility in Captex 300 EP,[14],4.4 mg/g
same,Solubility in Chloroform,[14],>97.0 mg/g
same,Solubility in DMSO,[14],30.5 mg/g
same,Solubility in Ethanol Denatured,[14],4.2 mg/g
same,Solubility in Glycerin USP/EP/BP/JP,[14],2.8 mg/g
same,Solubility in Methanol,[14],3.8 mg/g
same,Solubility in Methylene dichloride,[14],>99.7 mg/g
same,Solubility in PEG-400 NF,[14],0.017 mg/g
same,"Solubility in Propylene Glycol, USP",[14],3.2 mg/g
same,Solubility in Soybean Oil USP,[14],3.3 mg/g
same,Number of animals with no measurable tumor on Day 55,[15]; q1dx5 (2 weeks),4/10
same,Tumor Growth Delay (T − C),[15]; q1dx5 (2 weeks),>28* days
same,Tumors that had still not reached maximum pre-determined size,[15]; q1dx5 (2 weeks),*90% of tumors in this group had still not reached maximum pre-determined size.
same,Tumor Growth Inhibition (% T/C),[15]; q1dx5 (2 weeks),4 % T/C
same,Number of animals with no measurable tumor on Day 55,[15]; q3dx10,8/10
same,Tumor Growth Delay (T − C),[15]; q3dx10,>28* days
same,Tumors that had still not reached maximum pre-determined size,[15]; q3dx10,*90% of tumors in this group had still not reached maximum pre-determined size.
same,Tumor Growth Inhibition (% T/C),[15]; q3dx10,2 % T/C
same,Median tumor size,[15]; q1dx5,126 mm^3
same,Mice with no measurable tumor,[15]; q1dx5,40%
same,Mice with no measurable tumor,[15]; q3dx10,80%
same,Stability of the lactone form over time,[16],greater than that of camptothecin
"CC[C@@]1(O)C(=O)OCc2c1cc1n(c2=O)Cc2cc3cc(O)ccc3nc2-1 [Example 10-HO-CPT, 10-hydroxycamptothecin]",GI50,[1],0.062 µM
same,GI50,[2],0.011 µM
same,GI50,[3],0.112 µM
same,GI50,[4],0.01 µM
same,GI50,[6],0.356 µM
same,GI50,[7],0.027 µM
CC[C@@]1(OC(=O)CCC(=O)Oc2c(C)c(C)c3c(c2C)CC[C@@](C)(CCC[C@H](C)CCC[C@H](C)CCCC(C)C)O3)C(=O)OCc2c1cc1n(c2=O)Cc2cc3ccccc3nc2-1 [SN2300],Clearance,[8],0.0081 L/h/kg
same,MRT,[8],9.40 h
same,t1/2 (elimination),[8],29.08 h
same,"Plasma elimination half-life, times longer than the commercially available analogs",[8],approximately 30 times
same,GI50,[9],0.434 µM
same,GI50,[10],0.043 µM
same,GI50,[11],20 µM
same,"GI50 column, result in words (Poor activity)",[12],Poor
same,GI50,[13],0.449 µM
same,GI50,[17],0.325 µM
same,Solubility in TPGS,[14],>133.3 mg/g
same,Solubility in Vitamin E USP/NF,[14],>288.3 mg/g
same,Solubility in Tween 80 NF,[14],48.3 mg/g
same,Solubility in Acetonitrile,[14],49.6 mg/g
same,Solubility in Captex 300 EP,[14],96.7 mg/g
same,Solubility in Chloroform,[14],>372.5 mg/g
same,Solubility in DMSO,[14],>255.5 mg/g
same,Solubility in Ethanol Denatured,[14],57.1 mg/g
same,Solubility in Glycerin USP/EP/BP/JP,[14],2.541 mg/g
same,Solubility in Methanol,[14],14.4 mg/g
same,Solubility in Methylene dichloride,[14],>336.5 mg/g
same,Solubility in PEG-400 NF,[14],17.5 mg/g
same,"Solubility in Propylene Glycol, USP",[14],0.4633 mg/g
same,Solubility in Soybean Oil USP,[14],45.2 mg/g
same,Number of animals with no measurable tumor on Day 55,[15]; q1dx5 (2 weeks),0/10
same,Tumor Growth Delay (T − C),[15]; q1dx5 (2 weeks),8.5 days
same,Tumor Growth Inhibition (% T/C),[15]; q1dx5 (2 weeks),79 % T/C
same,Number of animals with no measurable tumor on Day 55,[15]; q3dx10,0/10
same,Tumor Growth Delay (T − C),[15]; q3dx10,0 days
same,Tumor Growth Inhibition (% T/C),[15]; q3dx10,102 % T/C
same,Stability of the lactone form over time,[16],greater than that of camptothecin
"CCc1c2c(nc3ccc(OC(=O)N4CCC(N5CCCCC5)CC4)cc13)-c1cc3c(c(=O)n1C2)COC(=O)[C@]3(O)CC [Irinotecan, irinotecan hydrochloride]",GI50,[2],5.01 µM
same,GI50,[3],12.6 µM
same,GI50,[4],3.98 µM
same,MRT,[5],1.43 h
same,Number of animals with no measurable tumor on Day 55,[15]; q1dx5 (2 weeks),0/10
same,Tumor Growth Delay (T − C),[15]; q1dx5 (2 weeks),14 days
same,Tumor Growth Inhibition (% T/C),[15]; q1dx5 (2 weeks),52 % T/C
same,Median tumor size,[15]; q1dx5,1637 mm^3
same,GI50,[7],7.9 µM
"CCc1c2c(nc3ccc(O)cc13)-c1cc3c(c(=O)n1C2)COC(=O)[C@]3(O)CC [SN38, 7-ethyl-10-hydroxycamptothecin]",GI50,[1],0.0029 µM
same,GI50,[2],0.0014 µM
same,GI50,[3],0.001 µM
same,GI50,[6],0.0079 µM
same,GI50,[7],0.021 µM
"CC[C@@]1(O)C(=O)OCc2c1cc1n(c2=O)Cc2cc3c(CN(C)C)c(O)ccc3nc2-1 [Topotecan, topotecan hydrochloride]",GI50,[1],0.251 µM
same,GI50,[2],0.0199 µM
same,GI50,[3],0.125 µM
same,GI50,[4],0.0158 µM
same,Clearance,[5],3.22 L/h/kg
same,t1/2 (elimination),[5],1.06 h
same,GI50,[6],0.501 µM
same,GI50,[7],0.0398 µM
